PubChem BioAssay (NCI)
Several values for one entry are separate records, joined by “and”; a condition that tells them apart may be missing. Equal entries are not always repeated.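 All cell lines were grown in 96-well plates and treated with compound for 48 hours. Abbreviation: GI50, concentration required for 50% inhibition of growth. TGI denotes the concentration required for complete inhibition of growth.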

Tests used:
Assay in all cases: DTP human tumour cell line panel, 48 h
786-0 renal = system: 786-0 renal
A498 renal = system: A498 renal
ACHN renal = system: ACHN renal
IGROV1 ovarian = system: IGROV1 ovarian
MOLT-4 leukemia = system: MOLT-4 leukemia
NCI-H460 lung = system: NCI-H460 lung
NCI-H522 lung = system: NCI-H522 lung
OVCAR-4 ovarian = system: OVCAR-4 ovarian
OVCAR-5 ovarian = system: OVCAR-5 ovarian

Compound	GI50 (786-0 renal) [µM]	TGI (786-0 renal)	GI50 (A498 renal) [µM]	TGI (A498 renal)	GI50 (ACHN renal) [µM]	TGI (ACHN renal)	GI50 (IGROV1 ovarian)	TGI (IGROV1 ovarian)	GI50 (MOLT-4 leukemia) [µM]	TGI (MOLT-4 leukemia)	GI50 (NCI-H460 lung) [µM]	TGI (NCI-H460 lung)	GI50 (NCI-H522 lung) [µM]	TGI (NCI-H522 lung)	GI50 (OVCAR-4 ovarian) [µM]	TGI (OVCAR-4 ovarian)	GI50 (OVCAR-5 ovarian) [µM]	TGI (OVCAR-5 ovarian)
O=C(Cc1ccc(Nc2ccnc(C(F)(F)F)c2)cc1)N/N=C/c1ccccc1O	3.59	> 62.7 µM	11.2	> 57.9 µM	1.46	> 51.4 µM	2.35 µM	> 24.7 µM	0.904	7.79 µM	1.37	10.6 µM	8.96	35.9 µM	3.29	> 100 µM	7.62	> 83.1 µM
O=C1C(=C([O-])c2ccccc2)C(=O)c2ccccc21.O=C1C(=C([O-])c2ccccc2)C(=O)c2ccccc21.[Co+2]	> 100	> 100 µM	> 100	> 100 µM	> 100	> 100 µM	> 100 µM	> 100 µM	> 100	> 100 µM	–	–	80.6	> 100 µM	> 100	> 100 µM	> 100	> 100 µM
NC(=N\N=C/c1ccc(Cl)cc1Cl)/C(N)=N\N=C/c1ccc(Cl)cc1Cl	1.32	16.7 µM	2.21	8.37 µM	0.576	15.6 µM	4 µM	> 100 µM	> 100	> 100 µM	0.795	> 100 µM	63	> 100 µM	0.34	1.65 µM	> 100	> 100 µM
O=C(O)c1cn(C2CC2)c2cc(N3CCN(C(=O)Nc4nc(-c5ccc(Br)cc5)cs4)CC3)c(F)cc2c1=O	1.75	> 100 µM	–	–	3.11	> 100 µM	3.38 µM	> 100 µM	0.622	> 100 µM	1.09	> 100 µM	2.41	> 100 µM	–	–	–	–
CN(CSc1ccc(Cl)cc1)c1ccc(CSc2ccc(Cl)cc2)cc1	1.8	11 µM	1.59	9.61 µM	6.28	22.3 µM	–	–	2.66	> 100 µM	3.65	15.6 µM	1.19	6.88 µM	3.15	20 µM	13.5	34.5 µM
O=C1c2cccnc2C(=O)c2c1c(C(=O)OCCc1ccccn1)c1ccccn21	0.252	1.26 µM	< 0.0378	0.824 µM	< 0.01	1.22 µM	0.0421 µM	4.73 µM	1.09	> 36.7 µM	< 0.01	0.079 µM	0.12	0.714 µM	1.13	8.39 µM	0.497	10.5 µM
CCN1C(=O)N(CC)C2C1NC(=S)N2/N=C/C=C/c1ccccc1OC (configuration not stated)	< 0.0212	> 100 µM	0.0295	0.0888 µM	0.0401	> 100 µM	0.0411 µM	> 100 µM	0.0427	> 100 µM	0.037	> 100 µM	0.0253	–	0.125	> 100 µM	0.0715	> 100 µM
N#Cc1c2ccccc2c2nnc3ccccc3n12	53.2	> 100 µM	–	–	19.3	61.2 µM	19.3 µM	92.2 µM	47.1	> 100 µM	31.9	> 100 µM	–	–	> 100	> 100 µM	–	–
COc1ncc(-c2ccc3nccc(C#CCN4CCN(S(C)(=O)=O)CC4)c3c2)cc1NS(=O)(=O)c1ccc(F)cc1F	0.0522	3.56 µM	0.048	0.309 µM	0.05	3.39 µM	< 0.01 µM	0.0333 µM	0.0391	2.29 µM	0.049	4.71 µM	0.154	1.77 µM	0.264	12 µM	0.0207	5.72 µM
N#C/C(=C\c1ccc(F)cc1)n1nc2cccc(F)c2n1	7.13	> 100 µM	2.04	7.25 µM	5.41	> 100 µM	5.01 µM	> 100 µM	3.09	> 100 µM	3.01	12.9 µM	3.24	> 100 µM	4.19	> 100 µM	5.04	> 100 µM
O=C(NS(=O)(=O)c1ccc(NC[C@H]2COCCO2)c([N+](=O)[O-])c1)c1ccc(N2CCN(CC3=C(c4ccc(Cl)cc4)CC4(CCC4)CC3)CC2)cc1Oc1cnc2[nH]ccc2c1	2.47	5.69 µM	2.36	5.74 µM	2.23	5.8 µM	1.93 µM	3.91 µM	1.36	5.22 µM	2.15	6.12 µM	1.93	4.62 µM	2.47	9.81 µM	1.73	4.03 µM
NC(=O)CCc1ccccc1Oc1nccc(-c2c(-c3ccc(F)cc3)ncn2C2CCNCC2)n1	> 25	> 25 µM	> 25	> 25 µM	> 25	> 25 µM	> 25 µM	> 25 µM	> 25	> 25 µM	> 25	> 25 µM	> 25	> 25 µM	> 25	> 25 µM	> 25	> 25 µM
CCN(CC)CC(O)COc1c(Br)c(Br)c(Br)c2c1OC(C)(C)C2 (configuration not stated)	3.13	11.9 µM	4.44	17.3 µM	4.94	16.4 µM	1.91 µM	5.83 µM	1.67	3.68 µM	3.28	11.6 µM	3.42	14.4 µM	6.56	22.8 µM	7.68	23.8 µM
CCCCN(CC)CCCCCCCCCCN1CCCc2cc(OC)ccc21	2.03	3.94 µM	2.36	9.54 µM	3.91	14.9 µM	3.18 µM	12.9 µM	3.09	10.5 µM	2.52	6.6 µM	1.66	3.5 µM	4.33	19.6 µM	6.37	24.1 µM
CC(C)OCc1cc(CN2CCN(c3cccc(Cl)c3)CC2)c(O)c2ncccc12	0.785	9.56 µM	0.871	8.25 µM	0.332	12.4 µM	0.621 µM	16.6 µM	0.362	3.41 µM	0.41	11.2 µM	0.3	2.26 µM	–	–	3.6	15.1 µM
N#CC(/C(=N/NC(N)=S)C(=O)Nc1cccc(Cl)c1)c1ccccc1 (configuration not stated)	–	> 100 µM	–	> 100 µM	–	> 100 µM	–	> 100 µM	–	> 100 µM	–	> 100 µM	–	> 100 µM	–	> 100 µM	–	> 100 µM
O=C(c1cccs1)c1nc2cc(Cl)ccc2[n+]([O-])c1C(F)(F)F	> 100	> 100 µM	92	> 100 µM	> 100	> 100 µM	> 100 µM	> 100 µM	70.1	> 100 µM	91.9	> 100 µM	29.6	> 100 µM	> 100	> 100 µM	> 100	> 100 µM
COc1ccc(/C=C/C(=O)c2ccc(Nc3nc(Nc4ccc(F)cc4)nc(Nc4ccc(Cl)cc4)n3)cc2)cc1	> 100	> 100 µM	> 100	> 100 µM	> 100	> 100 µM	17.7 µM	> 100 µM	11.9	> 100 µM	9.91	84.3 µM	36.7	> 100 µM	> 100	> 100 µM	> 100	> 100 µM
CCC(C)(C)[C@H](NC(=O)[C@H]1CCCCN1C)C(=O)N(C)[C@H](C[C@@H](OC(C)=O)c1nc(C(=O)N[C@@H](Cc2ccccc2)C[C@H](C)C(=O)O)cs1)C(C)C	< 0.00167	> 16.7 µM	< 0.00167	0.0113 µM	< 0.00167	> 16.7 µM	< 0.00167 µM	> 16.7 µM	< 0.00167	> 16.7 µM	< 0.00167	> 16.7 µM	< 0.00167	0.00583 µM	0.00798	> 16.7 µM	< 0.00167	> 16.7 µM
Cn1c(NCC(CN2CCCC2)OC(=O)c2ccccc2)cc(=O)n(C)c1=O (configuration not stated)	> 100	> 100 µM	> 100	> 100 µM	> 100	> 100 µM	> 100 µM	> 100 µM	> 100	> 100 µM	> 100	> 100 µM	> 100	> 100 µM	> 100	> 100 µM	> 100	> 100 µM
C/C(=N/NC(=S)N1CC2CCC(CC2)C1)c1cnccn1	–	5.65 µM	–	14.2 µM	–	10.1 µM	–	2.62 µM	–	1.32 µM	–	0.273 µM	–	10.1 µM	–	5.59 µM	–	24.6 µM
C=C1C(=O)OC2CC1C(OC(C)=O)C/C(C)=C/CC/C(C)=C\CCC2(C)O (configuration not stated)	–	10.5 µM and 19.9 µM	–	17.1 µM and 21.4 µM	–	14.9 µM and 7.78 µM	3.34 µM and 6.68 µM	14.5 µM and 20.1 µM	–	6.23 µM and 7.81 µM	–	14.1 µM and 8.22 µM	–	3.16 µM and 3.13 µM	–	21 µM and 19.2 µM	–	46.3 µM and 30 µM
C/C(=N\O)c1cccc(Nc2cc(-c3ccccc3)nc3c(O)cccc23)c1	3.07	11.5 µM	3.31	18.1 µM	6.57	22.5 µM	2.41 µM	18 µM	–	–	2.49	17.2 µM	1.85	9.36 µM	8.19	37.4 µM	12.5	32.2 µM
COc1ccccc1NC(=O)C(=O)Cc1cnc2ccccc2n1	–	> 100 µM	–	> 100 µM	–	> 100 µM	–	–	–	> 100 µM	–	> 100 µM	–	–	–	> 100 µM	–	> 100 µM
CCC(C)CC(C)C(=O)c1c(O)ccn(O)c1=O (configuration not stated)	3.65	> 100 µM	–	–	0.775	> 100 µM	3.18 µM	28.1 µM	1.06	17.6 µM	0.447	11.6 µM	2.46	> 100 µM	0.561	> 100 µM	23.7	> 100 µM
O=C([O-])CCc1ccccc1.O=C([O-])CCc1ccccc1.O=C([O-])CCc1ccccc1.O=C([O-])CCc1ccccc1.[Mo+2].[Mo+2]	> 100	> 100 µM	–	–	> 100	> 100 µM	> 100 µM	> 100 µM	> 100	> 100 µM	> 100	> 100 µM	–	–	> 100	> 100 µM	> 100	> 100 µM
CCOc1cc(/C=C/C(=O)C(C(=O)/C=C/c2ccc(OC(=O)CNc3nnc(C)s3)c(OCC)c2)C(=O)CNc2nnc(C)s2)ccc1OC(=O)CNc1nnc(C)s1	2.16	5.98 µM	1.8	3.64 µM	1.77	3.42 µM	–	–	0.681	6.56 µM	1.97	4.54 µM	2.03	5.71 µM	3.91	45.1 µM	2.43	5.41 µM
N#Cc1ccc(C(C2C(=O)NC(=O)NC2=O)C2C(=O)NC(=O)NC2=O)cc1	–	> 100 µM	–	–	–	> 100 µM	–	> 100 µM	–	> 100 µM	–	> 100 µM	–	> 100 µM	–	> 100 µM	–	> 100 µM
O=c1[nH]c(F)nc2c1ncn2C1OC(CO)C(O)C1O (configuration not stated)	> 100	> 100 µM	> 100	> 100 µM	> 100	> 100 µM	> 100 µM	> 100 µM	> 100	> 100 µM	> 100	> 100 µM	–	–	–	–	> 100	> 100 µM
